Measurements published in article PMC7580725 (Drug Delivery, 2020).

Key:
[1] = Dissolution test under sink condition; type: physicochemical; settings: deionized water with 0.3% (w/v) SDS, 900 mL, 37 °C, 100 rpm, 20 mg FNB
Description: The dissolution test under sink condition was conducted utilizing a ZRS-8G dissolution tester equipped with USP paddle apparatus (TDTF, Tianjin, China) at 37 °C and 100 rpm. […] Aliquot release medium (5 mL) was withdrawn at predetermined time intervals and an equal volume of fresh medium was added to compensate the sampling loss. The obtained samples were filtered through a 0.22 μm microporous membrane, and determined at 288 nm by UV spectrophotometry (TU-1901, Beijing, China).

[2] = Water contact angle of compressed powder (wettability); type: physicochemical; settings: pure water drop on compressed slice, Mean ± S.D., n = 3
Description: Powdered materials of different formulations were measured for angle of repose applying a BT 1000 powder analyzer (DanDong Better size Instruments, China). The wettability of the powders was evaluated using a contact angle analyzer (Dataphysics OCA-35, Filderstadt, Germany). Prior to measurement, 300 mg of powder was dried and then compressed into a slice with a diameter size of approximately 12 mm under a pressure of 10 MPa for one minute. […] The dynamic wetting angle was recorded using a video system at the speed of 6 frames/min.

drug release after 5 min [1]: 5.42% | Contact angle [2]: 87.2 ± 0.4 °
Structure (SMILES): CC(C)OC(=O)C(C)(C)Oc1ccc(C(=O)c2ccc(Cl)cc2)cc1 [FNB, Fenofibrate]
